Experimental data published in PubChem BioAssay AID2060505 (Molecular Pharmacology Branch, DTP, NCI, 2025).

Tested on: 633275-114-R-J1-PDC complex spheroids, viability
Assay: Anticancer human tumor 633275-114-R-J1-PDC patient-derived endometrial adenocarcinoma cell line growth inhibition [GQUAD]
Conditions: for IC50: curve of first compound; for viability, T/C: stronger effect = lower value
Method in brief: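 Tumor cells were grown as complex spheroids with HUVEC endothelial cells and mesenchymal stem cells as stroma. G-quadruplex stabilizers were combined with targeted agents over half-log dilutions from near the clinical Cmax, or from 10 microM.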

[1] = second compound 0.0316 µM, first compound 0.0316 µM
[2] = second compound 0.0316 µM, first compound 0.1 µM
[3] = second compound 0.0316 µM, first compound 0.316 µM
[4] = second compound 0.0316 µM, first compound 1 µM
[5] = second compound 0.0316 µM, first compound 3.16 µM
[6] = second compound 0.0316 µM, first compound 10 µM
[7] = second compound 0.1 µM, first compound 0.0316 µM
[8] = second compound 0.1 µM, first compound 0.1 µM
[9] = second compound 0.1 µM, first compound 0.316 µM
[10] = second compound 0.1 µM, first compound 1 µM
[11] = second compound 0.1 µM, first compound 3.16 µM
[12] = second compound 0.1 µM, first compound 10 µM
[13] = second compound 0.316 µM, first compound 0.0316 µM
[14] = second compound 0.316 µM, first compound 0.1 µM
[15] = second compound 0.316 µM, first compound 0.316 µM
[16] = second compound 0.316 µM, first compound 1 µM
[17] = second compound 0.316 µM, first compound 3.16 µM
[18] = second compound 0.316 µM, first compound 10 µM
[19] = second compound 1 µM, first compound 0.0316 µM
[20] = second compound 1 µM, first compound 0.1 µM
[21] = second compound 1 µM, first compound 0.316 µM
[22] = second compound 1 µM, first compound 1 µM
[23] = second compound 1 µM, first compound 3.16 µM
[24] = second compound 1 µM, first compound 10 µM
[25] = second compound 3.16 µM, first compound 0.0316 µM
[26] = second compound 3.16 µM, first compound 0.1 µM
[27] = second compound 3.16 µM, first compound 0.316 µM
[28] = second compound 3.16 µM, first compound 1 µM
[29] = second compound 3.16 µM, first compound 3.16 µM
[30] = second compound 3.16 µM, first compound 10 µM
[31] = second compound 10 µM, first compound 0.0316 µM
[32] = second compound 10 µM, first compound 0.1 µM
[33] = second compound 10 µM, first compound 0.316 µM
[34] = second compound 10 µM, first compound 1 µM
[35] = second compound 10 µM, first compound 3.16 µM
[36] = second compound 10 µM, first compound 10 µM
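Also: spheroids exposed to the agents for seven days.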
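For viability, T/C in this document: percent of DMSO vehicle control viability which is 100%.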

COc1cc(C2c3cc4c(cc3C(OC3OC5COC(C)OC5C(O)C3O)C3COC(=O)C23)OCO4)cc(OC)c1O (stereo unspecified) + CN(C)c1ccc(Nc2c3ccc(NC(=O)CCN4CCCC4)cc3nc3cc(NC(=O)CCN4CCCC4)ccc23)cc1
IC50 (second compound 0.0316 µM): 295 nM | IC50 (second compound 0.1 µM): 284 nM | IC50 (second compound 0.316 µM): 296 nM | IC50 (second compound 1 µM): 334 nM | IC50 (second compound 3.16 µM): 171 nM | IC50 (second compound 10 µM): < 31.6 nM | viability, T/C [1]: 81.6% | viability, T/C [2]: 64.5% | viability, T/C [3]: 47.3% | viability, T/C [4]: 40.9% | viability, T/C [5]: 33.7% | viability, T/C [6]: 30.3% | viability, T/C [7]: 80.2% | viability, T/C [8]: 64.8% | viability, T/C [9]: 44.7% | viability, T/C [10]: 41.4% | viability, T/C [11]: 32.6% | viability, T/C [12]: 26.9% | viability, T/C [13]: 84.3% | viability, T/C [14]: 69.7% | viability, T/C [15]: 48.4% | viability, T/C [16]: 36.8% | viability, T/C [17]: 38.4% | viability, T/C [18]: 29.8% | viability, T/C [19]: 75.4% | viability, T/C [20]: 59.5% | viability, T/C [21]: 52.1% | viability, T/C [22]: 38.7% | viability, T/C [23]: 36.7% | viability, T/C [24]: 26.7% | viability, T/C [25]: 71.7% | viability, T/C [26]: 53.7% | viability, T/C [27]: 43.6% | viability, T/C [28]: 36.4% | viability, T/C [29]: 37.5% | viability, T/C [30]: 26% | viability, T/C [31]: 25.5% | viability, T/C [32]: 19.9% | viability, T/C [33]: 18.5% | viability, T/C [34]: 17.5% | viability, T/C [35]: 16.3% | viability, T/C [36]: 10.7%

Cn1ncnc1[C@H]1c2n[nH]c(=O)c3cc(F)cc(c23)N[C@@H]1c1ccc(F)cc1 + CN(C)c1ccc(Nc2c3ccc(NC(=O)CCN4CCCC4)cc3nc3cc(NC(=O)CCN4CCCC4)ccc23)cc1
IC50 (second compound 0.0316 µM): > 316 nM | IC50 (second compound 0.1 µM): > 316 nM | IC50 (second compound 0.316 µM): > 316 nM | IC50 (second compound 1 µM): > 316 nM | IC50 (second compound 3.16 µM): > 316 nM | IC50 (second compound 10 µM): < 0.999 nM | viability, T/C (second compound 0.0316 µM, first compound 0.000999 µM): 103% | viability, T/C (second compound 0.0316 µM, first compound 0.00316 µM): 95.6% | viability, T/C (second compound 0.0316 µM, first compound 0.00999 µM): 82% | viability, T/C [1]: 76.8% | viability, T/C (second compound 0.0316 µM, first compound 0.0999 µM): 65.4% | viability, T/C [3]: 55.5% | viability, T/C (second compound 0.1 µM, first compound 0.000999 µM): 97.6% | viability, T/C (second compound 0.1 µM, first compound 0.00316 µM): 101% | viability, T/C (second compound 0.1 µM, first compound 0.00999 µM): 98% | viability, T/C [7]: 74.8% | viability, T/C (second compound 0.1 µM, first compound 0.0999 µM): 70.6% | viability, T/C [9]: 63.1% | viability, T/C (second compound 0.316 µM, first compound 0.000999 µM): 95.2% | viability, T/C (second compound 0.316 µM, first compound 0.00316 µM): 102% | viability, T/C (second compound 0.316 µM, first compound 0.00999 µM): 86.5% | viability, T/C [13]: 86.4% | viability, T/C (second compound 0.316 µM, first compound 0.0999 µM): 71.2% | viability, T/C [15]: 52.9% | viability, T/C (second compound 1 µM, first compound 0.000999 µM): 102% | viability, T/C (second compound 1 µM, first compound 0.00316 µM): 96.2% | viability, T/C (second compound 1 µM, first compound 0.00999 µM): 91.9% | viability, T/C [19]: 77.1% | viability, T/C (second compound 1 µM, first compound 0.0999 µM): 63.6% | viability, T/C [21]: 54.4% | viability, T/C (second compound 3.16 µM, first compound 0.000999 µM): 84.9% | viability, T/C (second compound 3.16 µM, first compound 0.00316 µM): 91.2% | viability, T/C (second compound 3.16 µM, first compound 0.00999 µM): 79.7% | viability, T/C [25]: 70% | viability, T/C (second compound 3.16 µM, first compound 0.0999 µM): 59.3% | viability, T/C [27]: 49.6% | viability, T/C (second compound 10 µM, first compound 0.000999 µM): 31.5% | viability, T/C (second compound 10 µM, first compound 0.00316 µM): 35.2% | viability, T/C (second compound 10 µM, first compound 0.00999 µM): 35.4% | viability, T/C [31]: 29.7% | viability, T/C (second compound 10 µM, first compound 0.0999 µM): 26.3% | viability, T/C [33]: 22%

O=C(c1cc(Cc2n[nH]c(=O)c3ccccc23)ccc1F)N1CCN(C(=O)C2CC2)CC1 + CN(C)c1ccc(Nc2c3ccc(NC(=O)CCN4CCCC4)cc3nc3cc(NC(=O)CCN4CCCC4)ccc23)cc1
IC50 (second compound 0.0316 µM): 9960 nM | IC50 (second compound 0.1 µM): 9890 nM | IC50 (second compound 0.316 µM): > 10000 nM | IC50 (second compound 1 µM): > 10000 nM | IC50 (second compound 3.16 µM): 5360 nM | IC50 (second compound 10 µM): < 31.6 nM | viability, T/C [1]: 88.7% | viability, T/C [2]: 93.8% | viability, T/C [3]: 95% | viability, T/C [4]: 80% | viability, T/C [5]: 81.6% | viability, T/C [6]: 49.2% | viability, T/C [7]: 95.5% | viability, T/C [8]: 98.1% | viability, T/C [9]: 92.7% | viability, T/C [10]: 79.7% | viability, T/C [11]: 69% | viability, T/C [12]: 49.2% | viability, T/C [13]: 91.1% | viability, T/C [14]: 99.8% | viability, T/C [15]: 88.4% | viability, T/C [16]: 76.1% | viability, T/C [17]: 75.8% | viability, T/C [18]: 58.4% | viability, T/C [19]: 104% | viability, T/C [20]: 82.9% | viability, T/C [21]: 78.7% | viability, T/C [22]: 78.3% | viability, T/C [23]: 69.8% | viability, T/C [24]: 47.8% | viability, T/C [25]: 75.5% | viability, T/C [26]: 80.6% | viability, T/C [27]: 69.6% | viability, T/C [28]: 65.5% | viability, T/C [29]: 62.9% | viability, T/C [30]: 38% | viability, T/C [31]: 25.3% | viability, T/C [32]: 26.1% | viability, T/C [33]: 27.1% | viability, T/C [34]: 25.4% | viability, T/C [35]: 29% | viability, T/C [36]: 21.1%
